Measured values taken from paper PMC4368105, “Oleic Acid Metabolism via a Conserved Cytochrome P450 System-Mediated ω-Hydroxylation in the Bark Beetle-Associated Fungus Grosmannia clavigera” (PLoS ONE, 2015).

Tests used:
[1] = biological target: T1, GsCYP630B18 with GsCPR1 (RS1) (Leptographium clavigerum, UniProt F0XBA3); assay: reconstituted membranes, LC/MS of 18-hydroxyoleic acid product; format: biochemical; details: NADPH, 50 μM oleic acid, pH 7.4, room temperature, 1 h; GsCPR1 as redox partner
T1 construct: gene CMQ_5365; with NADPH--cytochrome P450 reductase
T1 sequence (F0XBA3 1-522): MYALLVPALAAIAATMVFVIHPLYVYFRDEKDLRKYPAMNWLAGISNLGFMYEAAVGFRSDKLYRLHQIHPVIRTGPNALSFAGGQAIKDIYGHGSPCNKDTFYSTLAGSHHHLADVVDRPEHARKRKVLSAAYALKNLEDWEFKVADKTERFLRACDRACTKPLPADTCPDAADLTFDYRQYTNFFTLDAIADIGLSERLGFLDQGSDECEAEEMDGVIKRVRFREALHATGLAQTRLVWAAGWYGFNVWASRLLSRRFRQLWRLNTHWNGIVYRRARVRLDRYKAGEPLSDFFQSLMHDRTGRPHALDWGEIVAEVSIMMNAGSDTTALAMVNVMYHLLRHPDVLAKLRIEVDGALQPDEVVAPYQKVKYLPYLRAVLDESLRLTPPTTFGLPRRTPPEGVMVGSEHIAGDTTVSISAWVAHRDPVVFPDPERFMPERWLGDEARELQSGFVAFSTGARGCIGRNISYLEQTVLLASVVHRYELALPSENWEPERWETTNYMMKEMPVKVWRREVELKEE
T1 sequence (F0XUV1 1-690 partner): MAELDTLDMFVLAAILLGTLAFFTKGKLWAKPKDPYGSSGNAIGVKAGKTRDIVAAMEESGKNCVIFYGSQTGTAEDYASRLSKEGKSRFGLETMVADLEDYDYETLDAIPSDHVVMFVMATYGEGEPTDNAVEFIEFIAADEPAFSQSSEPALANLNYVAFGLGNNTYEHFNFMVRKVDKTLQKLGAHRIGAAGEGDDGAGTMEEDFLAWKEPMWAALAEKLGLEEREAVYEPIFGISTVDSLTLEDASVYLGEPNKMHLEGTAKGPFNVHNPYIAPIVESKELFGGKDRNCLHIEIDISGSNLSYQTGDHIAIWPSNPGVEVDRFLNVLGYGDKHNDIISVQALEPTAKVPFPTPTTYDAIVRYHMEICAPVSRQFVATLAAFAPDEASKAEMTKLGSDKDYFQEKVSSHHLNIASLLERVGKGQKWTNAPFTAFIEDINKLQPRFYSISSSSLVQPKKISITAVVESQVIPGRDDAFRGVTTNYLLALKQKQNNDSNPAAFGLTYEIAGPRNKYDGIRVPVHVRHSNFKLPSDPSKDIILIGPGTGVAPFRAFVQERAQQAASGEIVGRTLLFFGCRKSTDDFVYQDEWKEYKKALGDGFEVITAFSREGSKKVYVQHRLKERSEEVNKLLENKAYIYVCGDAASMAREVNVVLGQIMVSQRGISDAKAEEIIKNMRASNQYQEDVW

[2] = biological target: T2, GsCYP630B18 with GsCPR2 (RS2) (Leptographium clavigerum, UniProt F0XBA3); assay: as above; format: biochemical; details: NADPH, 50 μM oleic acid, pH 7.4, room temperature, 1 h; GsCPR2 as redox partner
T2 construct: gene CMQ_5365; with NADPH--cytochrome P450 reductase
T2 sequence (F0XBA3 1-522): T1 sequence (F0XBA3 1-522)
T2 sequence (F0XBA4 1-695 partner): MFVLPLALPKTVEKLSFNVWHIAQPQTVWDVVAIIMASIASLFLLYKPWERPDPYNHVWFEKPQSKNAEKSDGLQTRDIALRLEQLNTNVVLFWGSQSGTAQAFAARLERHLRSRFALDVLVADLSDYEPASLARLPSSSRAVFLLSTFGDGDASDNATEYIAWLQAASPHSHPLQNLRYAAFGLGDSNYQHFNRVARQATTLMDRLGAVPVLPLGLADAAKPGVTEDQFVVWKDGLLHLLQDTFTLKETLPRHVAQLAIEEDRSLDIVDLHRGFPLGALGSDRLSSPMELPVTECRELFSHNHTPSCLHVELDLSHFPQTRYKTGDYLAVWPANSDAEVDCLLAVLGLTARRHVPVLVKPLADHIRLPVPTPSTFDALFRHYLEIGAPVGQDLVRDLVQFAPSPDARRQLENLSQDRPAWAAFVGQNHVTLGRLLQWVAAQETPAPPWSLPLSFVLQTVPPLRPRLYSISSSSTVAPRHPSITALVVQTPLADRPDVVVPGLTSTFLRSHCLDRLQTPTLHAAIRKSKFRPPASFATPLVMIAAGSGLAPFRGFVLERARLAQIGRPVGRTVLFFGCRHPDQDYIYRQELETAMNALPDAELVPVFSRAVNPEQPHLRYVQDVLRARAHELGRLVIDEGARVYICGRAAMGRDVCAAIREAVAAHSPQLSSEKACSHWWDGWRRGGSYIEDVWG

With `CCCCCCCC/C=C\CCCCCCCC(=O)O` [oleic acid] the “reconstituted membranes, LC/MS of 18-hydroxyoleic acid product” value [1] was “CYP630B18 converted oleic acid, but none of the other tested compounds” and the “reconstituted membranes, LC/MS of 18-hydroxyoleic acid product” value [2] was “CYP630B18 converted oleic acid, but none of the other tested compounds”.
